Measured values from patent US10993923B2, “Method for ameliorating fibrosis using 1-[4-chloro-3-(trifluoromethyl)phenyl]-3-[3-(4-cyanophenoxy)phenyl]urea” (priority 2016, dated 2021).

Experiments:
[1] = test system: bleomycin-induced pulmonary fibrosis in mice; assay: Bleomycin-induced pulmonary fibrosis in mice; assay type: in vivo
Method: Male C57BL/6J mice (6-8 weeks of age) were obtained from the National Laboratory Animal Center (Taipei, Taiwan). All experimental procedures using these mice were performed according to protocols approved by the Institutional Laboratory Animal Care and Use Committee of Cardinal Tien Hospital. Each mouse was housed in cages (IVC; individual ventilation cage), and given daily photoperiod for 12 hours. Room temperature was maintained at 22-25° C., and humidity was maintained at 60 to 70%. Ventilation rate was remained at 16-18 times/hour. Food and drinking water (Altromin 1326 mice feed, Altromin, Germany) was freely given. All operations were executed in accordance with the standards of animal experimental animal operation of law. Management and feeding of animals were in compliant with guidance for care and use of laboratory (NRC 1996) rule approach implementation.
Pulmonary fibrosis was induced using bleomycin sulfate in male C57BL/6J mice (FIG. 1). The mice were intraperitoneally injected (IP) under anesthesia with Avertin (240 mg/Kg). On day 0 (n=20), a single dose of bleomycin (BLM) (1 mg=1000 IU, clinical level, Bleomycine Bellon, Sanofi-Aventis, France) was received in the mice (3.5 mg/kg) via intranasal instillation. The mice in the control group (n=10) were given saline only. On day 14 after intranasal BLM instillation, BLM treated mice were randomized into two groups receiving vehicle or 1-[4-chloro-3-(trifluoromethyl)phenyl]-3-[3-(4-cyanophenoxy)phenyl]urea until the end of the experiment. From day 14 to day 28, mice were administered intraperitoneally with 7.5 mg/kg/day of 1-[4-chloro-3-(trifluoromethyl)phenyl]-3-[3-(4-cyanophenoxy)phenyl]urea daily at a dose of 10 mL/kg body weight. The experimental time was 28 days and the 1-[4-chloro-3-(trifluoromethyl)phenyl]-3-[3-(4-cyanophenoxy)phenyl]urea compound was administered within 14 to 28 days.
The paraffin embedded tissue array blocks were cut into 4-μm-thick sections for H&E staining. For each case, carcinoma type, cell differentiation, growth pattern, tumor cell nuclear morphology, metaplasia, calcification, necrosis, mitosis count, invasion status and other specific differentiations were re-checked by two pathologists Immunohistochemical (IHC) staining was performed using a Ventana BenchMark XT automated stainer (Ventana, Tucson, Ariz.). Briefly, 4-μm-thick sections were cut consecutively from formalin-fixed, paraffin-embedded tissue. These sections were then mounted on silanized slides and allowed to dry overnight at 37° C. After deparaffinization and rehydration, the slides were incubated with 3% hydrogen peroxide solution for 5 minutes. After being washed with the supplied buffer, the tissue sections were repaired for 40 minutes with ethylenediamine tetraacetic acid.
Hydroxyproline analysis was performed using a hydroxyproline test kit following the manufacturer's instructions (Cell BioLabs, Inc., USA). Lung tissue was hydrolyzed in 12N HCl at 120° C. for 3 hours, and then washed and suspended in H2O. The tissue suspension was then mixed with chloramine-T at room temperature for 30 minutes. Then Ehrlich's reagent was added and reacted at 60° C. for 90 minutes. After that, the absorbance at 540 nm was measured.
Mice lung collagen was measured in lung homogenate using a Sircol assay (Biocolor, UK) following the manufacturer's instructions. Briefly, lung tissue homogenates were mixed with Sircol dye and centrifuged. The precipitate was resuspended in NaOH and the absorbance at 550 nm was measured. The absorbance obtained is directly proportional to the concentration of the recently synthesized collagen.
Whole-cell extracts were obtained via RIPA buffer (Millipore, USA) and protein concentrations were quantified via a BCA protein assay kit (Thermo Fisher Scientific, USA). 20 or 25 μg of protein was added to various percentages of SDS-sodium dodecyl sulfate-acrylamide gel and blotted onto a polyvinylidene fluoride (PVDF) membrane. […]

[2] = test system: mouse fibroblasts (NIH3T3 cell line); assay: Apoptosis analysis, NIH3T3 fibroblasts; assay type: cell-based
Method: (§1) Murine NIH3T3 fibroblasts and human lung epithelial cells (A549 cells) were purchased from the Bioresource Collection and Research Center (Hsinchu, Taiwan). Cells were cultured in Dulbecco's modified eagle medium (DMEM) containing 10% fetal bovine serum (FBS), 100 μg/mL penicillin, 100 μg/mL streptomycin. Cells were cultured at 37° C. in a humidified atmosphere of 5% CO2 and passaged every 4 to 5 days at 1:4 ratios.
The measurement of apoptotic cells was conducted by flow cytometry (sub-G1) and cell death detection enzyme-bound immunosorbent assay (ELISA) for cytoplasmic histone associated DNA fragments. The amount of formazan dye was quantified by measuring the absorbance at 570 nm using ELISA reader to calculate the optical density (OD) values. Statistical analysis was determined using Student's t-test, with P<0.05 considered significant.
STAT3 cDNA (KIAA1524) was purchased from Addgene Platinum Corporation. After the transient transfection of STAT3, SHP-1, SHP-1(dN1) mutants and SHP-1(61A) mutant in mouse fibroblasts (NIH3T3 cell line) and human lung epithelial cells (A549 cell line), cells were reacted separately with the 1-[4-chloro-3-(trifluoromethyl)phenyl]-3-[3-(4-cyanophenoxy)phenyl]urea compound and subjected to the Western blotting process. Transfection was performed by X-tremeGENE HP Transfection Reagent (Roche, Germany) following the manufacturer's instructions. […]

[3] = test system: mouse fibroblasts (NIH3T3 cell line); assay: Cell viability assay (WST-1), NIH3T3 fibroblasts; assay type: cell-based; conditions: FIG. 7A
Method: as §1
Murine NIH3T3 fibroblasts were seeded into 96-well plates (1×10^3 cells/well). To measure the cell viability and the cell proliferation, 10% WST-1 (cell proliferation reagent WST-1, Roche) was added to each well and reacted for 3 hours. The reaction was catalyzed by mitochondrial reductase in active cells and the optical density (OD) was calculated by measuring the absorbance at 450 nm via a Bio-Rad ELISA analyzer.

[4] = Western blot, bleomycin model after treatment, FIG. 6

## N#Cc1ccc(Oc2cccc(NC(=O)Nc3ccc(Cl)c(C(F)(F)F)c3)c2)cc1 [1-[4-chloro-3-(trifluoromethyl)phenyl]-3-[3-(4-cyanophenoxy)phenyl]urea]
[1]; 7.5 mg/kg dose, daily, day 14 to day 28 after bleomycin
  tolerability (drug-related adverse events): well tolerated
[1]; 7.5 mg/kg/day, day 14 to 28, FIG. 3
  fibrin deposition (Masson's trichrome staining positive area): significantly reduced
[1]; 7.5 mg/kg/day, day 14 to 28, versus BLM group, FIG. 2
  pathological changes of lung sections (hematoxylin-eosin staining): significantly improved
[1]; Sircol assay, 7.5 mg/kg/day, day 14 to 28, FIG. 5
  collagen content of mice lung: improved the accumulation of collagen
[1]; [4]
  P-STAT3: decreased
  amount of fibronectin: decreased
  expression level of E-cadherin: increased
[1]; lung tissue, 7.5 mg/kg/day, day 14 to 28, FIG. 4
  decrease of hydroxyproline (Hyp) content compared with the BLM group: about 22%
[2]; NIH3T3, SHP-1 siRNA, FIG. 7D
  compound-induced apoptosis after SHP-1 knockout: offset by SHP-1 knockout
[2]; NIH3T3, FIG. 7C
  apoptosis of fibrotic cells: induced apoptosis
[3]
  survival rate of mouse fibroblasts: reduced the survival rate of mouse fibroblasts (NIH3T3 cell line) in a dose-dependent manner
